# Positions of bridges follow the written chain, without caps; N, C: chain ends. Non-standard residues stand in square brackets, D forms with d. hCys = N[C@@H](CCS)C(=O)O
# System: MC1/MC4
# Conditions: ratio MC1/MC4
# 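Note: ratio of EC50 values obtained at MC1 versus MC4 receptors, with MC1 potency measured by luciferase reporter activity in stably transfected cells expressing human MC1.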
row,Substance,MC1/MC4 selectivity
1,Ac-Tyr-Arg-cyclo[Cys-Glu-(5-Me-D-His)-D-Phe-Arg-Trp-Cys]-NH2 [Compound 98],7.43
2,Ac-Tyr-Arg-cyclo[Cys-Glu-(5-Me-His)-D-Phe-Arg-Trp-Cys]-NH2 [Compound 97],8.03
3,"Ac-Tyr-Arg-cyclo[Cys-Glu-(β-(1,2,4-triazol-3-yl))-Ala)-D-Phe-Arg-Trp-Cys]-NH2 [Compound 106]",23.95
4,"Ac-Tyr-Arg-cyclo[Cys-Glu-(β-(1,2,4-triazol-3-yl))-D-Ala)-D-Phe-Arg-Trp-Cys]-NH2 [Compound 107]",1.00
5,"Ac-Tyr-Arg-cyclo[Cys-Glu-(β-(1,3-thiazol-4-yl)-Ala)-D-Phe-Arg-Trp-Cys]-NH2 [Compound 112]",5.62
6,Ac-Tyr-Arg-cyclo[Cys-Glu-(β-(2-furyl)-Ala)-D-Phe-Arg-Trp-Cys]-NH2 [Compound 110],4.27
7,"Ac-Tyr-Arg-cyclo[Cys-Glu-(β-((1-benzyl)-1,2,4-triazol-3-yl))-D-Ala)-D-Phe-Arg-Trp-Cys]-NH2 [Compound 108]",5.99
8,"Ac-Tyr-Arg-cyclo[Cys-Glu-(β-((1-benzyl)-1,2,4-triazol-3-yl))-D-Ala)-D-Phe-Arg-Trp-Cys]-NH2 [Compound 109]",6.05
9,Ac-Tyr-Arg-cyclo[Cys-Glu-(β-(pyridin-4-yl)-Ala)-D-Phe-Arg-Trp-Cys]-NH2 [Compound 113],13.51
10,Ac-Tyr-Arg-cyclo[Cys-Glu-(β-(thien-2-yl)-Ala)-D-Phe-Arg-Trp-Cys]-NH2 [Compound 111],7.67
11,Ac-Tyr-Arg-cyclo[Cys-Glu-His-(4-Br-D-Phe)-Arg-Trp-Cys]-NH2 [Compound 89],71.43
12,Ac-Tyr-Arg-cyclo[Cys-Glu-His-(4-Cl-D-Phe)-Arg-Trp-Cys]-NH2 [Compound 86],66.21
13,Ac-Tyr-Arg-cyclo[Cys-Glu-His-(4-F-D-Phe)-Arg-Trp-Cys]-NH2 [Compound 83],45.95
14,Ac-Tyr-Arg-cyclo[Cys-Glu-His-(4-Me-D-Phe)-Arg-Trp-Cys]-NH2 [Compound 92],12.06
15,Ac-Tyr-Arg-cyclo[Cys-Glu-His-(4-OMe-D-Phe)-Arg-Trp-Cys]-NH2 [Compound 93],1.48
16,Ac-Tyr-Arg-cyclo[Cys-Glu-His-D-Phe-Arg-Trp-Cys] alcohol [Compound 78],9.00
17,Ac-Tyr-Arg-cyclo[Cys-Glu-His-D-Phe-Arg-Trp-Cys]-2-(2-aminoethoxy)ethanol [Compound 115],2.00
18,Ac-Tyr-Arg-cyclo[Cys-Glu-His-D-Phe-Arg-Trp-Cys]-Lys-Pro alcohol [Compound 122],0.90
19,Ac-Tyr-Arg-cyclo[Cys-Glu-His-D-Phe-Arg-Trp-Cys]-NH2 [Compound 72],22.31
20,Ac-Tyr-Arg-cyclo[Cys-Glu-His-D-Phe-Arg-Trp-Cys]-NH-(CH2)6-NH2 [Compound 117],1.00
21,Ac-Tyr-Arg-cyclo[Cys-Glu-His-D-Phe-Arg-Trp-Cys]-OH [Compound 73],12.77
22,Ac-Tyr-Arg-cyclo[Cys-Glu-His-D-Phe-Arg-Trp-Cys]-Ser alcohol [Compound 116],4.00
23,Ac-Tyr-Arg-cyclo[Cys-Glu-His-D-Phe-Arg-Trp-Cys]-Ser-Pro alcohol [Compound 120],1.00
24,Ac-Tyr-Arg-cyclo[Cys-Glu-His-D-Phe-Arg-Trp-Cys]-glycinol [Compound 114],4.00
25,Ac-Tyr-Arg-cyclo[Cys-Glu-His-D-Phe-Arg-Trp-hCys]-NH2 [Compound 192],1.00
26,Ac-Tyr-Arg-cyclo[D-Cys-Glu-His-D-Phe-Arg-Trp-Cys]-NH2 [Compound 80],8.24

row,Substance,MC1/MC4 selectivity
1,Ac-Tyr-Arg-cyclo[hCys-Glu-His-D-Phe-Arg-Trp-Cys]-NH2 [Compound 166],9.38
2,Ac-Tyr-Arg-cyclo[hCys-Glu-His-D-Phe-Arg-Trp-hCys]-NH2 [Compound 197],1.00
3,Ac-Tyr-Cit-cyclo[Cys-Glu-(1-Me-His)-D-Phe-Arg-Trp-Cys]-NH2 [Compound 125],25.08
4,Ac-Tyr-Cit-cyclo[Cys-Glu-His-D-Phe-Arg-Trp-Cys]-NH2 [Compound 124],18.11
5,Ac-Tyr-D-Arg-cyclo[Cys-Glu-His-D-Phe-Arg-Trp-Cys]-NH2 [Compound 79],21.79
6,Ac-Tyr-hArg-cyclo[Cys-Glu-His-D-Phe-Arg-Trp-Cys]-NH2 [Compound 126],22.64
7,Ac-VCEH[dF]RWC-NH2 (disulfide 2-8) [Compound 63],30.51
8,Ac-YKCEH[dF]RWC-NH2 (disulfide 3-9) [Compound 128],22.46
9,Ac-YRCDH[dF]RWC-NH2 (disulfide 3-9) [Compound 7],15.00
10,Ac-YRCEH[dF]RWCE-NH2 (disulfide 3-9) [Compound 118],4.52
11,Ac-YRCEH[dF]RWCKP-NH2 (disulfide 3-9) [Compound 121],0.74
12,Ac-YRCEH[dF]RWCRF-NH2 (disulfide 3-9) [Compound 123],2.42
13,Ac-YRCEH[dF]RWCSP-NH2 (disulfide 3-9) [Compound 119],0.86
14,Ac-YRCFH[dF]RWC-NH2 (disulfide 3-9) [Compound 19],7.64
15,Ac-YRCGH[dF]RWC-NH2 (disulfide 3-9) [Compound 12],6.72
16,Ac-YRCIH[dF]RWC-NH2 (disulfide 3-9) [Compound 14],12.54
17,Ac-YRCMH[dF]RWC-NH2 (disulfide 3-9) [Compound 18],8.15
18,Ac-YRCNH[dF]RWC-NH2 (disulfide 3-9) [Compound 5],5.00
19,Ac-YRCPH[dF]RWC-NH2 (disulfide 3-9) [Compound 20],4.81
20,Ac-YRCQH[dF]RWC-OH (disulfide 3-9) [Compound 9],10.00
21,Ac-YRCQH[dF]RWC-OMe (disulfide 3-9) [Compound 10],9.50
22,Ac-YRCRH[dF]RWC-NH2 (disulfide 3-9) [Compound 4],0.26
23,Ac-YRCSH[dF]RWC-NH2 (disulfide 3-9) [Compound 21],10.27
24,Ac-YRCTH[dF]RWC-NH2 (disulfide 3-9) [Compound 22],6.85
25,Ac-YRCVH[dF]RWC-NH2 (disulfide 3-9) [Compound 25],11.00
26,Ac-YRCWH[dF]RWC-NH2 (disulfide 3-9) [Compound 23],10.54

row,Substance,MC1/MC4 selectivity
1,Ac-YRCYH[dF]RWC-NH2 (disulfide 3-9) [Compound 24],8.00
2,Ac-YR[hCys]H[dF]RWC-NH2 (disulfide 3-8) [Compound 164],7.79
3,Ac-YR[hCys]H[dF]RWC-OH (disulfide 3-8) [Compound 165],13.53
4,Ac-YR[hCys]H[dF]RW[hCys]-NH2 (disulfide 3-8) [Compound 196],4.98
5,Ac-YSCEH[dF]RWC-NH2 (disulfide 3-9) [Compound 129],22.16
6,Ac-YVCEH[dF]RWC-NH2 (disulfide 3-9) [Compound 130],26.88
7,Ac-[hCys]H[dF]RW[hCys]-NH2 (disulfide 1-6) [Compound 193],26.59
8,Ac-cyclo(S—CH2—S)[Cys-His-D-Phe-Arg-Trp-Cys]-NH2 [Compound 198],13.07
9,Ac-cyclo[Cys-Glu-(1-Me-His)-D-Phe-Arg-Trp-Cys]-NH2 [Compound 34],11.52
10,Ac-cyclo[Cys-Glu-His-(4-Br-D-Phe)-Arg-Trp-Cys]-NH2 [Compound 33],79.54
11,Ac-cyclo[Cys-Glu-His-(4-Cl-D-Phe)-Arg-Trp-Cys]-NH2 [Compound 32],66.88
12,Ac-cyclo[Cys-Glu-His-(4-F-D-Phe)-Arg-Trp-Cys]-NH2 [Compound 31],57.02
13,Ac-cyclo[Cys-His-(4-Cl-D-Phe)-Arg-Trp-hCys]-NH2 [Compound 185],269.59
14,Ac-cyclo[Cys-His-D-Phe-Arg-Trp-hCys]-NH2 [Compound 183],53.39
15,Ac-cyclo[hCys-His-(4-Cl-D-Phe)-Arg-Trp-Cys]-NH2 [Compound 140],128.15
16,Ac-cyclo[hCys-His-(4-Cl-D-Phe)-Arg-Trp-penicillamine]-NH2 [Compound 169],1804.00
17,Ac-cyclo[hCys-His-(4-F-D-Phe)-Arg-Trp-Cys]-NH2 [Compound 139],44.29
18,Ac-cyclo[hCys-His-(β-cyclohexyl-D-Ala)-Arg-Trp-Cys]-NH2 [Compound 167],3.36
19,Ac-cyclo[hCys-His-D-Phe-Arg-Trp-Cys]-OH [Compound 138],38.81
20,Ac-cyclo[hCys-His-D-Phe-Arg-Trp-penicillamine]-NH2 [Compound 168],212.71
21,Ac-diaminobutyryl-cyclo[Cys-Glu-His-D-Phe-Arg-Trp-Cys]-NH2 [Compound 44],15.00
22,Ac-diaminopropionyl-cyclo[Cys-Glu-His-D-Phe-Arg-Trp-Cys]-NH2 [Compound 43],11.00
23,Ac-hArg-cyclo[Cys-Glu-His-D-Phe-Arg-Trp-Cys]-NH2 [Compound 54],20.85
24,Ac-nLeu-cyclo[Cys-Glu-His-D-Phe-Arg-Trp-Cys]-NH2 [Compound 60],29.95
25,Ac-nLeu-cyclo[Cys-Glu-His-D-Phe-Arg-Trp-Cys]-Ser-Pro-NH2 [Compound 61],1.70
26,Ac-nLeu-cyclo[hCys-His-D-Phe-Arg-Trp-Cys]-NH2 [Compound 160],0.90

# From patent US20060293223A1 (Eli Lilly and Company Patent Division, priority 2003, published 2006)
